Patent US10865191B2, “Heterocyclic compounds useful as modulators of TNF alpha” (BRISTOL-MYERS SQUIBB COMPANY, priority 2015, dated 2020)
Where a name gives a salt, the structure may show the parent alone.

Target: TNFα (Homo sapiens, UniProt P01375)
Assay: TNF induced HEK-Blue assay (NF-kB-driven secreted alkaline phosphatase reporter)
Format: cell-based
Details: TNFα 0.5 ng/mL, HEK-Blue-CD40L cells, 18 h; read-out: TNF induced HEK-Blue assay IC50 value
Method in brief: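 HEK-Blue-CD40L cells (NF-kB-driven SEAP reporter), 20,000/well, added after 30 min pre-incubation of compound (0.004–25 μM final) with TNFα 0.5 ng/mL final at 37 °C; 18 h incubation. SEAP read with QUANTI-Blue at 620 nm; IC50 from 4-parameter logistic fit, normalized to unstimulated and stimulated DMSO controls.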

Sequence of TNFα (P01375 77-233 limits assumed): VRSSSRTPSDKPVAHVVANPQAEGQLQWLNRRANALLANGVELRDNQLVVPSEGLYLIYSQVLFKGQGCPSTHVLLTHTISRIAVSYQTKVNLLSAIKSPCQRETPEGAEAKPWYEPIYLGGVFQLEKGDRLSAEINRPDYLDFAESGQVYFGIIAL

Row | SMILES | IC50 [nM]
1 | Cc1nc2ccc(-c3cnc(N4CCN(CC(=O)O)CC4)nc3)cc2c(N[C@H](C)c2cc(C#N)ccc2F)c1Cl [Example 377, (R)-2-(4-(5-(3-chloro-4-((1-(5-cyano-2-fluorophenyl)ethyl)amino)-2-methylquinolin-6-yl)pyrimidin-2-yl)piperazin-1-yl)acetic acid] | < 1000
2 | Cc1nc2ccc(-c3cnc(C(C)(C)O)nc3)cc2c(N[C@H](c2cc(C#N)ccc2F)C(F)F)c1Cl [Example 378, (R)-3-(1-((3-chloro-6-(2-(2-hydroxypropan-2-yl)pyrimidin-5-yl)-2-methylquinolin-4-yl)amino)-2,2-difluoroethyl)-4-fluorobenzonitrile] | 10000 to 25000
3 | C[C@@H](Nc1c(Cl)cnc2cc(F)c(-c3cnc(C(C)(C)O)nc3)cc12)c1cc(C#N)ccc1F [Example 379, (R)-3-(1-((3-chloro-7-fluoro-6-(2-(2-hydroxypropan-2-yl)pyrimidin-5-yl)quinolin-4-yl)amino)ethyl)-4-fluorobenzonitrile] | < 1000
4 | Cc1nc2ccc(-c3cnc(C(C)(C)O)nc3)cc2c(N[C@@H](c2cc(C#N)ccc2F)C(F)F)c1Cl [Example 380, (S)-3-(1-((3-chloro-6-(2-(2-hydroxypropan-2-yl)pyrimidin-5-yl)-2-methylquinolin-4-yl)amino)-2,2-difluoroethyl)-4-fluorobenzonitrile] | < 1000
5 | CC(C)(O)c1ncc(-c2cc3c(N[C@@H](c4cc(C#N)ccc4F)C(F)F)c(Cl)cnc3cc2F)cn1 [Example 381, (S)-3-(1-((3-chloro-7-fluoro-6-(2-(2-hydroxypropan-2-yl)pyrimidin-5-yl)quinolin-4-yl)amino)-2,2-difluoroethyl)-4-fluorobenzonitrile] | < 1000
6 | Cc1nc2cc(F)c(-c3cnc(C(C)(C)O)nc3)cc2c(N[C@H](C)c2cc(C#N)ccc2F)c1Cl [Example 382, (R)-3-(1-((3-chloro-7-fluoro-6-(2-(2-hydroxypropan-2-yl)pyrimidin-5-yl)-2-methylquinolin-4-yl)amino)ethyl)-4-fluorobenzonitrile] | < 1000
7 | Cc1nc2cc(F)c(-c3cnc(C(C)(C)O)nc3)cc2c(N[C@H](C)c2cccc(C#N)c2)c1Cl [Example 383, (R)-3-(1-((3-chloro-7-fluoro-6-(2-(2-hydroxypropan-2-yl)pyrimidin-5-yl)-2-methylquinolin-4-yl)amino)ethyl)benzonitrile] | < 1000
8 | CCOC(=O)c1nc2ccc(-c3cnc(C(C)(C)O)nc3)cc2c(N[C@H](C)c2cc(C#N)ccc2F)c1Cl [Example 384, ethyl (R)-3-chloro-4-((1-(5-cyano-2-fluorophenyl)ethyl)amino)-6-(2-(2-hydroxypropan-2-yl)pyrimidin-5-yl)quinoline-2-carboxylate] | 1000 to 10000
9 | C[C@@H](Nc1c(Cl)c(C(=O)Nc2cccnc2)nc2ccc(-c3cnc(C(C)(C)O)nc3)cc12)c1cc(C#N)ccc1F [Example 385, (R)-3-chloro-4-((1-(5-cyano-2-fluorophenyl)ethyl)amino)-6-(2-(2-hydroxypropan-2-yl)pyrimidin-5-yl)-N-(pyridin-3-yl)quinoline-2-carboxamide] | 1000 to 10000
10 | Cc1nc2ccc(-c3cnc(C(C)(C)O)nc3)cc2c(N[C@H](C)c2cccc(C#N)c2)c1Cl [Example 386, (R)-3-(1-((3-chloro-6-(2-(2-hydroxypropan-2-yl)pyrimidin-5-yl)-2-methylquinolin-4-yl)amino)ethyl)benzonitrile] | < 1000
11 | Cc1nc2ccc(-c3cnc(C(C)(C)O)nc3)cc2c(N[C@H](C)c2cc(C(N)=O)ccc2F)c1Cl [Example 387, (R)-3-(1-((3-chloro-6-(2-(2-hydroxypropan-2-yl)pyrimidin-5-yl)-2-methylquinolin-4-yl)amino)ethyl)-4-fluorobenzamide] | < 1000
12 | C[C@@H](Nc1c(Cl)cnc2ccc(-c3cnc(C(C)(C)O)nc3)cc12)c1cc(C(N)=O)ccc1F [Example 388, (R)-3-(1-((3-chloro-6-(2-(2-hydroxypropan-2-yl)pyrimidin-5-yl)quinolin-4-yl)amino)ethyl)-4-fluorobenzamide] | < 1000
13 | Cc1nc2ccc(-c3cnc(N4CCN(CC(=O)O)CC4)nc3)cc2c(N[C@H](C)c2cc(C(N)=O)ccc2F)c1Cl [Example 389, (R)-2-(4-(5-(4-((1-(5-carbamoyl-2-fluorophenyl)ethyl)amino)-3-chloro-2-methylquinolin-6-yl)pyrimidin-2-yl)piperazin-1-yl)acetic acid] | < 1000
14 | Cc1nc2ccc(-c3cnc(C(C)(C)O)nc3)cc2c(N[C@@H](c2cc(C(N)=O)ccc2F)C(F)F)c1Cl [Example 390, (S)-3-(1-((3-chloro-6-(2-(2-hydroxypropan-2-yl)pyrimidin-5-yl)-2-methylquinolin-4-yl)amino)-2,2-difluoroethyl)-4-fluorobenzamide] | < 1000
15 | CC(C)(O)c1ncc(-c2cc3c(N[C@@H](c4cc(C(N)=O)ccc4F)C(F)F)c(Cl)cnc3cc2F)cn1 [Example 391, (S)-3-(1-((3-chloro-7-fluoro-6-(2-(2-hydroxypropan-2-yl)pyrimidin-5-yl)quinolin-4-yl)amino)-2,2-difluoroethyl)-4-fluorobenzamide] | < 1000
16 | C[C@@H](Nc1c(Cl)cnc2cc(F)c(-c3cnc(C(C)(C)O)nc3)cc12)c1cc(C(N)=O)ccc1F [Example 392, (R)-3-(1-((3-chloro-7-fluoro-6-(2-(2-hydroxypropan-2-yl)pyrimidin-5-yl)quinolin-4-yl)amino)ethyl)-4-fluorobenzamide] | < 1000
17 | Cc1nc2cc(F)c(-c3cnc(C(C)(C)O)nc3)cc2c(N[C@H](C)c2cc(C(N)=O)ccc2F)c1Cl [Example 393, (R)-3-(1-((3-chloro-7-fluoro-6-(2-(2-hydroxypropan-2-yl)pyrimidin-5-yl)-2-methylquinolin-4-yl)amino)ethyl)-4-fluorobenzamide] | < 1000
18 | Cc1nc2cc(F)c(-c3cnc(C(C)(C)O)nc3)cc2c(N[C@H](C)c2cccc(C(N)=O)c2)c1Cl [Example 394, (R)-3-(1-((3-chloro-7-fluoro-6-(2-(2-hydroxypropan-2-yl)pyrimidin-5-yl)-2-methylquinolin-4-yl)amino)ethyl)benzamide] | < 1000
19 | C[C@@H](Nc1c(Cl)c(C(=O)Nc2cccnc2)nc2ccc(-c3cnc(C(C)(C)O)nc3)cc12)c1cc(C(N)=O)ccc1F [Example 395, (R)-4-((1-(5-carbamoyl-2-fluorophenyl)ethyl)amino)-3-chloro-6-(2-(2-hydroxypropan-2-yl)pyrimidin-5-yl)-N-(pyridin-3-yl)quinoline-2-carboxamide] | 1000 to 10000
20 | Cc1nc2ccc(-c3cnc(C(C)(C)O)nc3)cc2c(N[C@H](C)c2cc(Cc3ccccc3)ccc2F)c1Cl [Example 396, (R)-2-(5-(4-((1-(5-benzyl-2-fluorophenyl)ethyl)amino)-3-chloro-2-methylquinolin-6-yl)pyrimidin-2-yl)propan-2-ol] | < 1000
21 | Cc1nc2ccc(-c3cnc(C(C)(C)O)nc3)cc2c(N[C@H](C)c2cc(O)ccc2F)c1Cl [Example 404, (R)-3-(1-((3-chloro-6-(2-(2-hydroxypropan-2-yl)pyrimidin-5-yl)-2-methylquinolin-4-yl)amino)ethyl)-4-fluorophenol] | < 1000
22 | C[C@@H](Nc1c(Cl)cnc2ccc(-c3cnc(C(C)(C)O)nc3)cc12)c1cc(O)ccc1F [Example 405, (R)-3-(1-((3-chloro-6-(2-(2-hydroxypropan-2-yl)pyrimidin-5-yl)quinolin-4-yl)amino)ethyl)-4-fluorophenol] | < 1000
23 | Cc1nc2ccc(-c3cnc(C(C)(C)O)nc3)cc2c(N[C@H](C)c2cc(Cl)ccc2F)c1Cl [Example 406, (R)-2-(5-(3-chloro-4-((1-(5-chloro-2-fluorophenyl)ethyl)amino)-2-methylquinolin-6-yl)pyrimidin-2-yl)propan-2-ol] | < 1000
24 | Cc1nc2ccc(-c3cnc(C(C)(C)O)nc3)cc2c(N[C@H](C)c2cc(C(=O)O)ccc2F)c1Cl [Example 407, (R)-3-(1-((3-chloro-6-(2-(2-hydroxypropan-2-yl)pyrimidin-5-yl)-2-methylquinolin-4-yl)amino)ethyl)-4-fluorobenzoic acid] | 10000 to 25000
25 | Cc1nc2ccc(-c3cnc(C(C)(C)O)nc3)cc2c(N[C@H](C)c2cc(C(C)(C)O)ccc2F)c1Cl [Example 408, (R)-2-(5-(3-chloro-4-((1-(2-fluoro-5-(2-hydroxypropan-2-yl)phenyl)ethyl)amino)-2-methylquinolin-6-yl)pyrimidin-2-yl)propan-2-ol, TFA Salt] | < 1000
26 | CC(=O)c1ccc(F)c([C@@H](C)Nc2c(Cl)cnc3ccc(-c4cnc(C(C)(C)O)nc4)cc23)c1 [Example 409, (R)-1-(3-(1-((3-chloro-6-(2-(2-hydroxypropan-2-yl)pyrimidin-5-yl)quinolin-4-yl)amino)ethyl)-4-fluorophenyl)ethan-1-one] | < 1000
27 | C[C@@H](Nc1c(Cl)cnc2ccc(-c3cnc(C(C)(C)O)nc3)cc12)c1cc(C(C)(C)O)ccc1F [Example 410, (R)-2-(5-(3-chloro-4-((1-(2-fluoro-5-(2-hydroxypropan-2-yl)phenyl)ethyl)amino)quinolin-6-yl)pyrimidin-2-yl)propan-2-ol] | 1000 to 10000
28 | C[C@@H](Nc1c(Cl)cnc2ccc(-c3cnc(C(C)(C)O)nc3)cc12)c1cc(C#Cc2ccccc2)ccc1F [Example 411, (R)-2-(5-(3-chloro-4-((1-(2-fluoro-5-(phenylethynyl)phenyl)ethyl)amino)quinolin-6-yl)pyrimidin-2-yl)propan-2-ol] | 1000 to 10000
29 | Cc1nc2ccc(-c3cnc(C(C)(C)O)nc3)cc2c(N[C@H](C)c2cc(-c3nnn[nH]3)ccc2F)c1Cl [Example 412, (R)-2-(5-(3-chloro-4-((1-(2-fluoro-5-(1H-tetrazol-5-yl)phenyl)ethyl)amino)-2-methylquinolin-6-yl)pyrimidin-2-yl)propan-2-ol] | 10000 to 25000
